The results in this text go back to patent US8158628B2, “Sulfonylated 1,2,3,4-tetrahydropyrrolo[1,2-a]pyrazine compounds and their use as pharmaceuticals” (Gruenenthal GmbH, priority 2009, dated 2012).

Usually inhibition stands for the drop in the measured response relative to a control, in per cent.

Molecules are shown by their SMILES.

The target of assay [1] is T1, human B1R (Homo sapiens, UniProt P46663).
T1 construct: expressed in transfected cells; host or cells: CHO K1 cells (Chinese hamster ovary), stably transfected
T1 sequence (P46663 1-353): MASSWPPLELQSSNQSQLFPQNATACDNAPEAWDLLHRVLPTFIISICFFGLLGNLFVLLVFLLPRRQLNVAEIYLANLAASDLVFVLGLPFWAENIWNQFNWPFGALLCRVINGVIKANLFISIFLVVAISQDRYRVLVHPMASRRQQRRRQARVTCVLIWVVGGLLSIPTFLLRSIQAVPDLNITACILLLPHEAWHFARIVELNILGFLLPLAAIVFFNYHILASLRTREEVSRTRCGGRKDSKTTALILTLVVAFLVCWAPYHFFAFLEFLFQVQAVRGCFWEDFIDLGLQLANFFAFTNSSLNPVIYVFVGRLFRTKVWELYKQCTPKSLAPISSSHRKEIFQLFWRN
Description: FLIPR Ca2+ functional assay, B1R antagonism, human B1R in CHO K1 cells. In kind it is cell-based. The following applies: test substance 10 μM; hB1R CHO K1 cells; agonist Lys-Des-Arg9 bradykinin at EC80; % of maximum achievable inhibition. A digest of the protocol: (§1)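 Stably transfected CHO K1 cells loaded with Fluo-4; Ca2+ fluorescence read on FLIPR (ex 488/em 540 nm). Compound preincubated 10-20 min, then agonist at EC80: Lys-Des-Arg9 bradykinin (human) or Des-Arg9 bradykinin (rat). % inhibition vs maximal inhibition; IC50 from concentration series, n=2-3, N>=2.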

The target in assay [2] is T2, B1R of the rat (Rattus norvegicus, UniProt P97583).
T2 construct: expressed in transfected cells; host or cells: CHO K1 cells (Chinese hamster ovary), stably transfected
T2 sequence (P97583 1-337): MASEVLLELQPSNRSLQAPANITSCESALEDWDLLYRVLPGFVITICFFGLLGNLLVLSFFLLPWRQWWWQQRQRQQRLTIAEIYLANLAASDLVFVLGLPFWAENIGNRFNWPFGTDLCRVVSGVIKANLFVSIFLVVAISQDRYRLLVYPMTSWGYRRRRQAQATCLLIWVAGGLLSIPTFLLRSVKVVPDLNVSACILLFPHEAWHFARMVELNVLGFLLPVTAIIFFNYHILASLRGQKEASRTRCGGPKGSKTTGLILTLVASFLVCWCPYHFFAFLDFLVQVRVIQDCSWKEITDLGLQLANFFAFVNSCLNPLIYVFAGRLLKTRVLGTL
The assay is described as follows: FLIPR Ca2+ functional assay, B1R antagonism, rat B1R in CHO K1 cells. In kind it is cell-based. The following applies: test substance 10 μM; rB1R CHO K1 cells; agonist Des-Arg9 bradykinin at EC80; % of maximum achievable inhibition. A digest of the protocol: as §1

For `Cc1ccc(S(=O)(=O)N2CCn3cccc3C2CC(=O)NC2CCCc3cc(CN4C5CCCC4CC5)ccc32)cc1` (stereo not drawn) [Example 108, N-[6-(8-Azabicyclo[3.2.1]octan-8-yl-methyl)-1,2,3,4-tetrahydro-naphthalen-1-yl]-2-[2-(p-tolylsulfonyl)-1,2,3,4-tetrahydro-pyrrolo[1,2-a]pyrazin-1-yl]-acetamide], the figures for the inhibition at 10 µM in assay [1] and in assay [2] were 99.9% and 101%, respectively.
With `O=C(CC1c2cccn2CCN1S(=O)(=O)c1cccc(C(F)(F)F)c1)NC1CCCc2cc(CN3C4CCCC3CC4)ccc21` (stereo not drawn) [Example 109, N-[6-(8-Azabicyclo[3.2.1]octan-8-yl-methyl)-1,2,3,4-tetrahydro-naphthalen-1-yl]-2-[2-[[3-(trifluoromethyl)phenyl]sulfonyl]-1,2,3,4-tetrahydro-pyrrolo[1,2-a]pyrazin-1-yl]-acetamide], the inhibition at 10 µM in assay [1] and in assay [2] was 99.8% each time.
For the compound `Cc1ccc(S(=O)(=O)N2CCn3cccc3C2CC(=O)NC2CCCc3cc(CN4C5CCCC4CC5)ccc32)cc1Cl` (stereo not drawn) [Example 110, N-[6-(8-Azabicyclo[3.2.1]octan-8-yl-methyl)-1,2,3,4-tetrahydro-naphthalen-1-yl]-2-[2-[(3-chloro-4-methyl-phenyl)sulfonyl]-1,2,3,4-tetrahydro-pyrrolo[1,2-a]pyrazin-1-yl]-acetamide], the inhibition at 10 µM in assay [1] stood at 99.9%; in assay [2], 98.8%.
On the same counts, the results for `Cc1ccc(S(=O)(=O)N2CCn3cccc3C2CC(=O)NC2CCCc3cc(CNCc4ccccc4)ccc32)cc1Cl` (stereo not drawn) [Example 111, N-[6-[(Benzylamino)-methyl]-1,2,3,4-tetrahydro-naphthalen-1-yl]-2-[2-[(3-chloro-4-methyl-phenyl)sulfonyl]-1,2,3,4-tetrahydro-pyrrolo[1,2-a]pyrazin-1-yl]-acetamide] are 100% and 103%.
On the same counts, the results for `O=C(CC1c2cccn2CCN1S(=O)(=O)c1cccc(C(F)(F)F)c1)NC1CCCc2cc(CNCc3ccccc3)ccc21` (stereo not drawn) [Example 112, N-[6-[(Benzylamino)-methyl]-1,2,3,4-tetrahydro-naphthalen-1-yl]-2-[2-[[3-(trifluoromethyl)phenyl]sulfonyl]-1,2,3,4-tetrahydro-pyrrolo[1,2-a]pyrazin-1-yl]-acetamide] are 99.8% and 102%.
On the same counts, the results for `CN(Cc1ccc2c(c1)CCCC2NC(=O)CC1c2cccn2CCN1S(=O)(=O)c1cccc(C(F)(F)F)c1)C(C)(C)C` (stereo not drawn) [Example 113, N-[6-[(tert-Butyl-methyl-amino)-methyl]-1,2,3,4-tetrahydro-naphthalen-1-yl]-2-[2-[[3-(trifluoromethyl)phenyl]sulfonyl]-1,2,3,4-tetrahydro-pyrrolo[1,2-a]pyrazin-1-yl]-acetamide] are 99.8% and 97.1%.
`COc1ccc2cc(S(=O)(=O)N3CCn4cccc4C3CC(=O)NC3CCCc4cc(CNC(C)(C)C)ccc43)ccc2c1` (stereo not drawn) [Example 114, N-[6-[(tert-Butylamino)-methyl]-1,2,3,4-tetrahydro-naphthalen-1-yl]-2-[2-[(6-methoxy-naphthalen-2-yl)sulfonyl]-1,2,3,4-tetrahydro-pyrrolo[1,2-a]pyrazin-1-yl]-acetamide]: the inhibition at 10 µM in assay [1] is 100%; in assay [2], 99.6%.
Turning to `Cc1ccc(S(=O)(=O)N2CCn3cccc3C2CC(=O)NC2CCc3cc(CN(C)C)ccc3C2)cc1Cl` (stereo not drawn) [Example 115, 2-[2-[(3-Chloro-4-methyl-phenyl)sulfonyl]-1,2,3,4-tetrahydro-pyrrolo[1,2-a]pyrazin-1-yl]-N-[6-(dimethylaminomethyl)-1,2,3,4-tetrahydro-naphthalen-2-yl]-acetamide], the values for the inhibition at 10 µM in assay [1] and in assay [2] were 99.8% and 102%, respectively.
With `CN(Cc1ccc2c(c1)CCC(NC(=O)CC1c3cccn3CCN1S(=O)(=O)c1cccc(C(F)(F)F)c1)C2)C(C)(C)C` (stereo not drawn) [Example 116, N-[6-[(tert-Butyl-methyl-amino)-methyl]-1,2,3,4-tetrahydro-naphthalen-2-yl]-2-[2-[[3-(trifluoromethyl)phenyl]sulfonyl]-1,2,3,4-tetrahydro-pyrrolo[1,2-a]pyrazin-1-yl]-acetamide], the values for the inhibition at 10 µM in assay [1] and in assay [2] were 99.8% and 102%, respectively.
Turning to `COc1ccc2cc(S(=O)(=O)N3CCn4cccc4C3CC(=O)NC3CCCc4cc(CN5CCN(C)CC5)ccc43)ccc2c1` (stereo not drawn) [Example 117, 2-[2-[(6-Methoxy-naphthalen-2-yl)sulfonyl]-1,2,3,4-tetrahydro-pyrrolo[1,2-a]pyrazin-1-yl]-N-[6-[(4-methyl-piperazin-1-yl)-methyl]-1,2,3,4-tetrahydro-naphthalen-1-yl]-acetamide], the values for the inhibition at 10 µM in assay [1] and in assay [2] were 100% and 98.8%, respectively.
On the same counts, the results for `COc1ccc2cc(S(=O)(=O)N3CCn4cccc4C3CC(=O)NC3CCc4cc(CN5CCOCC5)ccc4C3)ccc2c1` (stereo not drawn) [Example 118, 2-[2-[(6-Methoxy-naphthalen-2-yl)sulfonyl]-1,2,3,4-tetrahydro-pyrrolo[1,2-a]pyrazin-1-yl]-N-[6-(morpholin-4-yl-methyl)-1,2,3,4-tetrahydro-naphthalen-2-yl]-acetamide] are 100% and 102%.
On the same counts, the results for `Cc1ccc(S(=O)(=O)N2CCn3cccc3C2CC(=O)NC2CCCc3cc(CN4CCCc5ccccc54)ccc32)cc1Cl` (stereo not drawn) [Example 119, 2-[2-[(3-Chloro-4-methyl-phenyl)sulfonyl]-1,2,3,4-tetrahydro-pyrrolo[1,2-a]pyrazin-1-yl]-N-[6-(1,2,3,4-tetrahydro-quinolin-1-yl-methyl)-1,2,3,4-tetrahydro-naphthalen-1-yl]-acetamide] are 23.4% and 62.2%.
For `COc1ccc2cc(S(=O)(=O)N3CCn4cccc4C3CC(=O)NC3CCCc4cc(CN5CCOCC5)ccc43)ccc2c1` (stereo not drawn) [Example 120, 2-[2-[(6-Methoxy-naphthalen-2-yl)sulfonyl]-1,2,3,4-tetrahydro-pyrrolo[1,2-a]pyrazin-1-yl]-N-[6-(morpholin-4-yl-methyl)-1,2,3,4-tetrahydro-naphthalen-1-yl]-acetamide], in that order: 97.8% and 102%.
For the compound `CCC(C)NCc1ccc2c(c1)CCC(NC(=O)CC1c3cccn3CCN1S(=O)(=O)c1ccc3cc(OC)ccc3c1)C2` (stereo not drawn) [Example 121, 2-[2-[(6-Methoxy-naphthalen-2-yl)sulfonyl]-1,2,3,4-tetrahydro-pyrrolo[1,2-a]pyrazin-1-yl]-N-[6-[(1-methyl-propylamino)-methyl]-1,2,3,4-tetrahydro-naphthalen-2-yl]-acetamide], the inhibition at 10 µM in assay [1] stood at 99.9%; in assay [2], 99.5%.
On the same counts, the results for `Cc1ccc(S(=O)(=O)N2CCn3cccc3C2CC(=O)NC2CCc3cc(CNC(C)(C)C)ccc3C2)cc1` (stereo not drawn) [Example 122, N-[6-[(tert-Butylamino)-methyl]-1,2,3,4-tetrahydro-naphthalen-2-yl]-2-[2-(p-tolylsulfonyl)-1,2,3,4-tetrahydro-pyrrolo[1,2-a]pyrazin-1-yl]-acetamide] are 99.6% and 101%.
For `Cc1ccc(S(=O)(=O)N2CCn3cccc3C2CC(=O)NC2CCc3cc(CN4CCCC4)ccc3C2)cc1` (stereo not drawn) [Example 123, 2-[2-(p-Tolylsulfonyl)-1,2,3,4-tetrahydro-pyrrolo[1,2-a]pyrazin-1-yl]-N-[6-(pyrrolidin-1-yl-methyl)-1,2,3,4-tetrahydro-naphthalen-2-yl]-acetamide], in that order: 100% and 101%.
On the same counts, the results for `CN(C)Cc1ccc2c(c1)CCCC2NC(=O)CC1c2cccn2CCN1S(=O)(=O)c1cccc(C(F)(F)F)c1` (stereo not drawn) [Example 124, N-[6-(Dimethylaminomethyl)-1,2,3,4-tetrahydro-naphthalen-1-yl]-2-[2-[[3-(trifluoromethyl)phenyl]sulfonyl]-1,2,3,4-tetrahydro-pyrrolo[1,2-a]pyrazin-1-yl]-acetamide] are 99.7% and 97.3%.
On to `CCC(C)NCc1ccc2c(c1)CCCC2NC(=O)CC1c2cccn2CCN1S(=O)(=O)c1ccc2cc(OC)ccc2c1` (stereo not drawn) [Example 125, 2-[2-[(6-Methoxy-naphthalen-2-yl)sulfonyl]-1,2,3,4-tetrahydro-pyrrolo[1,2-a]pyrazin-1-yl]-N-[6-[(1-methyl-propylamino)-methyl]-1,2,3,4-tetrahydro-naphthalen-1-yl]-acetamide], for which the inhibition at 10 µM in assay [1] turned out to be 99.6%; in assay [2] it was 99.1%.
